Where two headings read alike, the source gives them in different places.
Tests used:
Format in all cases: biochemical
KDM4C (JMJD2C) = target: T1, KDM4C (JMJD2C) (Homo sapiens, UniProt Q9H3R0); experiment: Histone lysine demethylase AlphaLISA assay, KDM4C
T1 construct: KDM4C; BRIC, Denmark; 1-349; E. coli; host or cells: E. coli
T1 sequence (Q9H3R0 1-349): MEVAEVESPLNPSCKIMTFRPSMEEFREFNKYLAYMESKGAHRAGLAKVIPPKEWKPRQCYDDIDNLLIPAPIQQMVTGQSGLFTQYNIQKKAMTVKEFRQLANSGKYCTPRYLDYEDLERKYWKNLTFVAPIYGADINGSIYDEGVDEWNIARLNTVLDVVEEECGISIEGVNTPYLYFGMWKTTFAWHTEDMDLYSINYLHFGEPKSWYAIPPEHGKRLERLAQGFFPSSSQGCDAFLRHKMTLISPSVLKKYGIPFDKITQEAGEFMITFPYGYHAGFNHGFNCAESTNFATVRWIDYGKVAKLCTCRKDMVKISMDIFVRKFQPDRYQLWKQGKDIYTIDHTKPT
Summary of the method: (§1)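 Compounds preincubated 10 min with each demethylase in Hepes buffer (pH 7.4-8.0) containing Tween-20, 0.1% BSA and 5 μM Fe(II); substrate then added, room-temperature reaction. Read-out by AlphaLISA acceptor and streptavidin donor beads after incubation in the dark.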

KDM2B (FBXL10) = target: T2, KDM2B (FBXL10) (Homo sapiens, UniProt Q8NHM5); experiment: Histone lysine demethylase AlphaLISA assay, KDM2B
T2 construct: KDM2B; BPS,; 1-650; Bac; purchased BPS Bioscience, US; host or cells: baculovirus system
T2 sequence (Q8NHM5 1-650): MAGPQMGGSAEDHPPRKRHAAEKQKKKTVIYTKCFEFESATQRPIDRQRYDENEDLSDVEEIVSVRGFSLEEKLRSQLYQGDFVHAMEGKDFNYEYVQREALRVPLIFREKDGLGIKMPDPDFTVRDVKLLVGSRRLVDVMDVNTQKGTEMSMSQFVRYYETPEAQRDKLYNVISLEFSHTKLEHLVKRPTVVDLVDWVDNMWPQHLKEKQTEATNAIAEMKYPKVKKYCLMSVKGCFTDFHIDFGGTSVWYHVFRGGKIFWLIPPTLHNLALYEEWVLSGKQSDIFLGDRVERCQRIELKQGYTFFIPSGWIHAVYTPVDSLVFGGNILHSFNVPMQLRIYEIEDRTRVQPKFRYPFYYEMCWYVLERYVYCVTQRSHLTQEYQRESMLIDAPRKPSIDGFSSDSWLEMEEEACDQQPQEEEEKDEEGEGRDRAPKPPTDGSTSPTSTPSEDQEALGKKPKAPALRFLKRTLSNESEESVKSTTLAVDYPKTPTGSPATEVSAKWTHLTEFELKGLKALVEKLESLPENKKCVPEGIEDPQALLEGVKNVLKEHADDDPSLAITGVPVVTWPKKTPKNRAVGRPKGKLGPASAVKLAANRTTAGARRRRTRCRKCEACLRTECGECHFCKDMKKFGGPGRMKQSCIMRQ
Summary of the method: as §1

PHF8 (KDM7) = target: T3, PHF8 (KDM7) (Homo sapiens, UniProt Q9UPP1); experiment: Histone lysine demethylase AlphaLISA assay, PHF8
T3 construct: KDM7 (PHF8); BRIC; 1-1322; Bac
T3 sequence (Q9UPP1 37-440 limits assumed): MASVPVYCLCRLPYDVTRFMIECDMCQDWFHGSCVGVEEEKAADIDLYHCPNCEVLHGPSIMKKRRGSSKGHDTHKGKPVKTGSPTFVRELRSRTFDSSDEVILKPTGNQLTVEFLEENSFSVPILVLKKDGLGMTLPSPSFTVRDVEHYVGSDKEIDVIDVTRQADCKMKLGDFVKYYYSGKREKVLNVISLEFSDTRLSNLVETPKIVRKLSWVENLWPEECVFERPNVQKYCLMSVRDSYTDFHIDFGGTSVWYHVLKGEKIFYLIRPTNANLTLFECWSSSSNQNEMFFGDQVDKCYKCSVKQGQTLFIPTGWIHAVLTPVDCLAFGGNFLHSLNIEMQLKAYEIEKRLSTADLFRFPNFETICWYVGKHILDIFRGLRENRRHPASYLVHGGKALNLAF
Summary of the method: as §1

KDM6A (UTX) = target: T4, KDM6A (UTX) (Homo sapiens, UniProt O15550); experiment: Histone lysine demethylase AlphaLISA assay, KDM6A
T4 construct: KDM6A (UTX); BRIC; 919-1401; E. coli; host or cells: E. coli
T4 sequence (O15550 919-1401): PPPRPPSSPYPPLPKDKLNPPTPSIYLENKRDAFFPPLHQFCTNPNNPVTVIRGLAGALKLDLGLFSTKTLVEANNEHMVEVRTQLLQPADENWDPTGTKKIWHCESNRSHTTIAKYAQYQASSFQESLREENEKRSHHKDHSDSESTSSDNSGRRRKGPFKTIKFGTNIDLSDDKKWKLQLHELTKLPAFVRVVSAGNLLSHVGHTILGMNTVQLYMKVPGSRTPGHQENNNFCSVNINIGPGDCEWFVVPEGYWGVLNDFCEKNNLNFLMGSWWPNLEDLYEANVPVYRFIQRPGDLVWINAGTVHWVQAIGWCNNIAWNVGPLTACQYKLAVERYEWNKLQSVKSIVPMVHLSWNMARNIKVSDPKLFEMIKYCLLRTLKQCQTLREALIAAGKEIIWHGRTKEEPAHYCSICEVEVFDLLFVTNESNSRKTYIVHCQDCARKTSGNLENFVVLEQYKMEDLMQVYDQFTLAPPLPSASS
Method: The compounds of the application, or a pharmaceutically acceptable salt, or solvate, or prodrug thereof, are tested in an in vitro AlphaLISA assay. Enzymes are dissolved in enzyme buffer and incubated before they are added to DMSO solutions of compounds of the application, or a pharmaceutically acceptable salt, or solvate, or prodrug thereof, in enzyme buffer. The reaction mixture is then incubated for an additional period of time before substrate solution is added and then the resulting mixture again incubated. Acceptor beads and suspended Epigenetic Buffer from stock are added and the suspension is again incubated before a suspension of streptavidin donor beads in Epigenetic Buffer is added. After an additional period of incubation, the plates are read.
The ability of compounds of the application to inhibit the histone lysine demethylase activity in vitro of different enzymes was determined.
The reaction mixture was incubated for another 10 minutes before 5 μL of substrate solution was added and the resulting mixture was then incubated at room temperature. […] After incubation at room temperature in the dark, the plates were read.
Enzyme Buffer: 50 mM Hepes (pH 7.4-8.0), 0.003-0.01% Tween-20, 0.1% BSA; 5 μM (NH4)2Fe(SO4)2.

KDM5B (PLU-1) = target: T5, KDM5B (PLU-1) (Homo sapiens, UniProt Q9UGL1); experiment: Histone lysine demethylase AlphaLISA assay, KDM5B
T5 construct: BRIC; 1-809; E. coli; host or cells: E. coli
T5 sequence (Q9UGL1 1-809): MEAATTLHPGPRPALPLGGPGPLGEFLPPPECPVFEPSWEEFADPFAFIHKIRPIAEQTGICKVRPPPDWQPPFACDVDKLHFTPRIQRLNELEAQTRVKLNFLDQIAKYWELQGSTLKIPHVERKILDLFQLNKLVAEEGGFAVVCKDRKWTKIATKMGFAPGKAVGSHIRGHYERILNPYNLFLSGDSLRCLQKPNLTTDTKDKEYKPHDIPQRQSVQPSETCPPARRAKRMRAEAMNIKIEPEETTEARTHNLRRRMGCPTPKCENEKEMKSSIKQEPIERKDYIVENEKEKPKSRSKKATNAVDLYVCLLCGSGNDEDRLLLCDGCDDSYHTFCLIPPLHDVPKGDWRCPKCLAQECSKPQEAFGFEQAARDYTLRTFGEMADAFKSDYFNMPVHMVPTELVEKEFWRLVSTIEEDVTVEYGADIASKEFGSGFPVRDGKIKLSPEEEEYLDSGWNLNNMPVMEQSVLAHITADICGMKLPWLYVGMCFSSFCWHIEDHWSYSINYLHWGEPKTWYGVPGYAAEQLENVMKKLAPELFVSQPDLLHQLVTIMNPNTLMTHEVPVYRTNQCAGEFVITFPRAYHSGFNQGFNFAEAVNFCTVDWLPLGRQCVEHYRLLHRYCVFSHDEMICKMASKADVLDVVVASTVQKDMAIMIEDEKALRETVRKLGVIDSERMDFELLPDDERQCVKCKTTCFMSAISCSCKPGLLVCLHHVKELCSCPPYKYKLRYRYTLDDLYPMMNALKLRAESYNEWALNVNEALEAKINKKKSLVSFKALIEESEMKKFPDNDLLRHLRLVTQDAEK
Summary of the method: as §1

[1] = AlphaLISA assay, read-out: HDME Inhibition KDM4C (IC50)
[2] = AlphaLISA, in vitro, read-out: HDME Inhibition KDM4C
[3] = AlphaLISA, in vitro, read-out: HDME Inhibition KDM2B
[4] = AlphaLISA, in vitro, read-out: HDME Inhibition PHF8
[5] = AlphaLISA assay, read-out: HDME Inhibition KDM6A (IC50)
[6] = AlphaLISA, in vitro, read-out: HDME Inhibition KDM6A
[7] = AlphaLISA assay, read-out: HDME Inhibition KDM5B (IC50)
[8] = AlphaLISA, in vitro, read-out: HDME Inhibition KDM5B
[9] = AlphaLISA assay, read-out: HDME Inhibition PHF8 (IC50)

Row | Structure (SMILES) | IC50 (KDM4C (JMJD2C); [1]) [µM] | IC50 (KDM4C (JMJD2C); [2]) [µM] | IC50 (KDM2B (FBXL10); [3]) [µM] | IC50 (PHF8 (KDM7); [4]) [µM] | IC50 (KDM6A (UTX); [5]) [µM] | IC50 (KDM6A (UTX); [6]) [µM] | IC50 (KDM5B (PLU-1); [7]) [µM] | IC50 (KDM5B (PLU-1); [8]) [µM] | IC50 (PHF8 (KDM7); [9]) [µM] | IC50 (KDM5B (PLU-1)) [µM] | IC50 (KDM2B (FBXL10); AlphaLISA assay, read-out: HDME Inhibition KDM2B (IC50)) [µM]
1 | Cc1cc(C(=O)O)cc(CNCc2nccn2Cc2ccc(F)cc2)n1 [Compound 1, 2-{[({1-[(4-fluorophenyl)methyl]-1H-imidazol-2-yl}methyl)amino]methyl}-6-methylpyridine-4-carboxylic acid] | > 10 | > 10 | 0.431 | 0.352 | > 10 | > 10 | > 10 | > 10 | – | – | –
2 | Cc1cc(C(=O)O)cc(CNCc2nnc(C3CC3)n2Cc2ccc(F)cc2)n1 [Compound 38, 2-{[({5-cyclopropyl-4-[(4-fluorophenyl)methyl]-4H-1,2,4-triazol-3-yl}methyl)amino]methyl}-6-methylpyridine-4-carboxylic acid] | > 10 | > 10 | 2.29 | > 10 | > 10 | > 10 | – | – | > 10 | 4.62 | –
3 | Cc1cc(C(=O)O)cc(CNCc2nnc(C)n2Cc2ccc(F)cc2)n1 [Compound 37, 2-{[({4-[(4-Fluorophenyl)methyl]-5-methyl-4H-1,2,4-triazol-3-yl}methyl)amino]methyl}-6-methylpyridine-4-carboxylic acid] | > 10 | > 10 | 0.297 | 0.489 | > 10 | > 10 | > 10 | > 10 | – | – | –
4 | Cc1cc(C(=O)O)cc(CN[C@H](CO)CC(C)C)n1 [Compound 23, 2-({[(2S)-1-hydroxy-4-methylpentan-2-yl]amino}methyl)-6-methylpyridine-4-carboxylic acid] | > 10 | > 10 | > 10 | > 10 | > 10 | > 10 | > 10 | > 10 | > 10 | – | > 10
5 | CCC(C)Cc1cnc(CNCc2cc(C(=O)O)cc(C)n2)n1Cc1ccc(F)cc1 (centres unmarked) [Compound 30, 2-{[({1-[(4-fluorophenyl)methyl]-5-(2-methylbutyl)-1H-imidazol-2-yl}methyl)amino]methyl}-6-methylpyridine-4-carboxylic acid] | > 10 | > 10 | 0.703 | 2.22 | > 10 | > 10 | > 10 | > 10 | – | – | –
6 | CCc1cnc(CNCc2cc(C(=O)O)cc(C)n2)n1Cc1ccc(F)cc1 [Compound 4, 2-{[({5-ethyl-1-[(4-fluorophenyl)methyl]-1H-imidazol-2-yl}methyl)amino]methyl}-6-methylpyridine-4-carboxylic acid] | > 10 | > 10 | 0.03 | 0.234 | > 10 | > 10 | > 10 | > 10 | – | – | –
